According to PMC7567880 (Scientific Reports, 2020):
Read-outs that look alike come from different tables or passages of the source.

Legend:
Plasmopara viticola [1] = assay type: cell-based; details: 5 and 7 dpi; for effect on P. viticola disease severity on leaf disks: 200 μM peptide co-inoculated with sporangia, Pinot noir leaf disks, ten replicates from two experiments
[2] = system: P. viticola cellulose synthase 2 (PvCesA2), cytoplasmic portion aa 331 to 790; assay type: binding, Plasmopara viticola; details: growth on selective media lacking adenine or histidine, 10 mM 3-AT; sequence found at least three times among 30 colonies
HKC8 cells = details: 400 μM, HKC8 at 1 K, 3 K and 6 K cells/100 μl, four biological replicates
Plasmopara viticola [3] = assay type: cell-based
Plasmopara viticola [4] = assay type: in vivo; details: for disease severity of plants: average ± standard error
[5] = system: Pinot noir leaves, photosystem II; details: grapevine leaves, 7 days after treatment, average ± SD of 3 measurements
Erysiphe necator = assay type: cell-based; details: 200 μM and 400 μM, young grapevine leaves, 14 dpi
[6] = system: Agrobacterium tumefaciens; assay type: cell-based; details: 100 μM and 200 μM in LB medium, 28 °C, OD600 every hour for 5 h, three biological replicates
Escherichia coli = assay type: cell-based; details: 100 μM and 200 μM in LB medium, 37 °C, OD600 every hour for 5 h, three biological replicates
[7] = system: Plasmopara viticola zoospores; assay type: cell-based; details: 200 μM, leaf disks, 6 h in the dark at 22 °C, SEM
[8] = system: Bacillus amyloliquefaciens (subsp. plantarum) strain D 747; assay type: cell-based; details: 100 μM and 200 μM in LB medium, 37 °C, OD600 every hour for 5 h, three biological replicates
Phytophthora infestans = assay type: cell-based; details: 100 μM and 200 μM in pea agar medium, 20 °C, radial growth at 4, 5 and 7 dpi

“H-LFPFVSSM-OH [NoPv2, 8 a.a. peptide aptamer identified by yeast two-hybrid assay using PvCesA2 as bait]” was tested, and the “effect on P. viticola disease severity on leaf disks” value (Plasmopara viticola [1]) was “intermediate” and the “peptide aptamers interacting with PvCesA2 (yeast two-hybrid library screening)” value (shortened to “peptide aptamers interacting”) [2] was “interacting with PvCesA2”.
With “H-MLLHSELC-OH [NoPv3, 8 a.a. peptide aptamer identified by yeast two-hybrid assay using PvCesA2 as bait]” the “effect on P. viticola disease severity on leaf disks” value (Plasmopara viticola [1]) was “no effect” and the “peptide aptamers interacting” value [2] was “interacting with PvCesA2”.
With “H-RLTAQCRL-OH [NoPv1, peptide aptamer of 8 L-amino acid residues, RLTAQCRL, isolated with PvCesA2 as bait]” the “effect on P. viticola disease severity on leaf disks” value (Plasmopara viticola [1]) was “completely inhibit”, the “anti-oomycete activity on leaf disks” value (Plasmopara viticola [1]; co-inoculation, 20 μM) was “no anti-oomycete activity” and the “P. viticola disease severity on leaf disks” value (Plasmopara viticola [1]; co-inoculation, 50 μM) was “almost half of the control sample”. The “percentage of leaf disk area covered by P. viticola sporulation” value (Plasmopara viticola [1]; co-inoculation, concentrations equal or higher than 100 μM) was “below 10%”, the “cell viability (MTT, absorbance at 570 nm) vs control” value (HKC8 cells; DMEM-F12, 24 h) was “No significant differences between control and treated samples” and the “cell viability (MTT, absorbance at 570 nm) vs control” value (HKC8 cells; DMEM-F12, 48 h) was “cytotoxic effects could only be observed at 1 K cell density”. For the same substance, the “treatment efficacy, preventive application” value (Plasmopara viticola [3]; 400 μM applied 7 days before inoculation (-7 d), leaf disks) was “effective in suppressing P. viticola infection”, the “treatment efficacy, post-inoculation (curative) application” value (Plasmopara viticola [3]; 400 μM applied +1 h to +2 d after P. viticola inoculation, leaf disks) was “efficacy decreased very rapidly” and the Disease severity (Plasmopara viticola [3]; 400 μM sprayed +1 h after inoculation, leaf disks, 7 dpi, mean of ten replicates) was 18.00%. The Disease severity (Plasmopara viticola [3]; 400 μM sprayed +1 d after inoculation, leaf disks, 7 dpi, mean of ten replicates) was 23.76%, the Disease severity (Plasmopara viticola [3]; 400 μM sprayed +2 d after inoculation, leaf disks, 7 dpi, mean of ten replicates) was 36.00% and the Disease severity (Plasmopara viticola [3]; 400 μM sprayed -2 h before inoculation, leaf disks, 7 dpi, mean of ten replicates) was 1.58%. The Disease severity (Plasmopara viticola [3]; 400 μM sprayed -6 h before inoculation, leaf disks, 7 dpi, mean of ten replicates) was 5.62%, the Disease severity (Plasmopara viticola [3]; 400 μM sprayed -1 d before inoculation, leaf disks, 7 dpi, mean of ten replicates) was 6.17% and the Disease severity (Plasmopara viticola [3]; 400 μM sprayed -2 d before inoculation, leaf disks, 7 dpi, mean of ten replicates) was 3.96%. For the same substance, the Disease severity (Plasmopara viticola [3]; 400 μM sprayed -5 d before inoculation, leaf disks, 7 dpi, mean of ten replicates) was 2.23%, the Disease severity (Plasmopara viticola [3]; 400 μM sprayed -7 d before P. viticola inoculation, leaf disks, 7 dpi, mean of ten replicates from two experiments) was 9.72% and the “P. viticola severity on leaf disks after nebulization” value (Plasmopara viticola [3]; 400 μM, Potter Precision Spray Tower, 7 dpi) was “reduction of P. viticola severity”. The Disease severity (Plasmopara viticola [3]; 400 μM, co-inoculation 0 h, leaf disks, 7 dpi, mean of ten replicates) was 2.88%, the “efficacy on leaf disks after nebulization compared with copper fungicide” value (Plasmopara viticola [3]; 800 μM vs Kocide 2000 1.42 g l^-1, Potter Precision Spray Tower) was “as effective as the copper-based fungicide Kocide 2000” and the “lowest concentration that maximises the efficacy against P. viticola” value (Plasmopara viticola [3]; nebulization on leaf disks, Potter Precision Spray Tower) was 400 µM. For the same substance, the “disease severity of plants” value (Plasmopara viticola [4]; 400 μM sprayed immediately before P. viticola inoculation, greenhouse Pinot noir plants) was 27.3 ± 5.2%, the “disease severity of plants” value (Plasmopara viticola [4]; 800 μM sprayed immediately before P. viticola inoculation, greenhouse plants) was 26.2 ± 4.2% and the “NoPv1 efficacy compared to control plants” value (Plasmopara viticola [4]; 1 mM applied at -7 d, -2 d and 0 h, greenhouse plants, 7 dpi) was “higher than 60%”. The Disease severity (Plasmopara viticola [4]; 1 mM sprayed -7 d before inoculation, greenhouse plants, 7 dpi, mean of ten replicates from two experiments) was 15.89%, the “disease severity of plants” value (Plasmopara viticola [4]; 1 mM sprayed immediately before P. viticola inoculation, greenhouse plants) was 20.8 ± 2.4% and the “disease severity of plants” value (Plasmopara viticola [4]; 2 mM sprayed immediately before P. viticola inoculation, greenhouse plants) was 21.1 ± 4.2. The “lowest concentration showing a P. viticola severity comparable to the copper treatment” value (Plasmopara viticola [4]; greenhouse plants, sprayed immediately before inoculation) was 1 mM, the “FV/FM, maximum quantum yield of photosystem II” value ([5]; 400 µM (P1)) was 0.73 ± 0.01 and the “Y(II), effective quantum yield of photosystem II” value ([5]; 400 µM (P1)) was 0.33 ± 0.02. The “FV/FM, maximum quantum yield of photosystem II” value ([5]; 1 mM (P2)) was 0.74 ± 0.01, the “Y(II), effective quantum yield of photosystem II” value ([5]; 1 mM (P2)) was 0.33 ± 0.01 and the “effect on E. necator disease severity on leaves” value (Erysiphe necator) was “not able to reduce the disease severity on leaves”. The “growth inhibition of A. tumefaciens” value [6] was “not able to inhibit the growth”, the “growth inhibition of E. coli” value (Escherichia coli) was “not able to inhibit the growth” and the “peptide aptamers interacting” value [2] was “interacting with PvCesA2”. The “zoospores in which a germ tube primordium could be detected” value ([7]; 5 zoospores out of 160) was 3.12%, the “P. viticola germ tube formation” value ([7]; n = 160) was “unable to develop any germ tube” and the “growth inhibition of B. amyloliquefaciens” value [8] was “not able to inhibit the growth”. For the same substance, the “inhibition of P. infestans growth in vitro” value (Phytophthora infestans) was “able to inhibit P. infestans growth in vitro”.
